In experiment [1] the test system is Vascular smooth muscle cells (rSMC). The experiment in a line: Rat smooth muscle cell proliferation assay (thrombin-stimulated, MTT). Conditions: 48 h, thrombin 0.1 unit/ml, 2 days, MTT OD 590 nm, read-out: Rat SMC IC50. Type of experiment: cell-based. On the procedure:
Vascular smooth muscle cells (rSMC) were isolated from male SD rat aorta by the explant method. DMEM medium (Sigma) containing 10% fetal bovine serum (GibcoBRL), streptomycin and penicillin was used as the proliferation medium, and subculture was carried out at 37° C. in the presence of 5% CO2. Culture was initiated after adding 100 μl of rSMC suspension in proliferation medium at a concentration of 1×10^4 cells/ml, to a 96-well plate. After 3 days, cells were rinsed twice with 100 μl of DMEM medium, the medium was exchanged with 100 μl of DMEM medium containing 0.1% albumin (starvation medium), and serum starvation was initiated. […]
Upon adding 20 μl of MTT (3-[4,5-dimethylthiazol-2-yl]-2,5-diphenyltetrazolium bromide) dissolved in DPBS to 7.5 mg/ml, incubation was continued for 4 hours. […] As an index of cell proliferation, the OD 590 nm was measured using a plate reader (EL340, BIO-TEK Instruments Inc.), and the control OD value (OD value in the absence of the test compound) minus the OD value in the presence of the test compound was divided by the control OD value minus the blank OD value (OD value without thrombin stimulation) to determine the inhibition ratio, from which the value was calculated.

In the next experiment the target is T1, PAR1 thrombin receptor (Homo sapiens, UniProt P25116).
T1 construct: centrifuged at 40,000 g for 60 minutes to yield platelet membrane; from tissue; host or cells: platelet membrane from donor blood
T1 sequence (P25116 22-425): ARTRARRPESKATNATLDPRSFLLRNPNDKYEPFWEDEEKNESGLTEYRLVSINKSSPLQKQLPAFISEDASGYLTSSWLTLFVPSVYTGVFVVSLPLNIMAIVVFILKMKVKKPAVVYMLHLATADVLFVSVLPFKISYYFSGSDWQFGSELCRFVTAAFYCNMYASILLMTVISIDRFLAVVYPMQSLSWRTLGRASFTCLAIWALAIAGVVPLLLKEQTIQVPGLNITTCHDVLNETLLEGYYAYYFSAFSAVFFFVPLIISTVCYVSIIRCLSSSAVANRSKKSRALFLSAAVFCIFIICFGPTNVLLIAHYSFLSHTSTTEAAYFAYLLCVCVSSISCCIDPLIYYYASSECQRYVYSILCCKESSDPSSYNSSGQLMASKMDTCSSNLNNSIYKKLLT
The experiment in a line: Receptor binding assay ([3H] high affinity TRAP, platelet membrane). Conditions: displacement of 25 nM [3H] high affinity TRAP from platelet membrane, 37° C., 1 hour; read-out: RBA IC50. On the procedure:
Blood was sampled from a healthy adult who had taken no drugs for one week, and 3.8% citric acid (a ratio of 1:9 with respect to the blood) was added as an anticoagulant. The mixture was then centrifuged at 100 g for 10 minutes at room temperature to yield platelet rich plasma (PRP). The platelet precipitate obtained, by centrifuging the PRP was homogenized with a Dounce homogenizer, and then centrifuged at 40,000 g for 60 minutes to yield platelet membrane. The platelet membrane was suspended in a solution prepared by adding DMSO (dimethyl sulfoxide) at 1% concentration to Buffer 1: a 50 mM Tris-HCl buffer containing 10 mM MgCl2 and 1 mM EGTA (ethylene glycol tetraacetic acid), and the suspension was stored at −80° C. Bovine albumin and DMSO were added to Buffer 1 at 0.1% and 20%, respectively, to make a preparation solution for the test compound. […] Next, 30 μl of liquid scintillator was added for measurement of the radioactivity of the plate using a Top Counter (Packard), the value of the radioactivity in the presence of the test compound minus non-specific binding portion was divided by the specific binding value (the value of the binding in the absence of the compound minus the non-specific binding portion) to determine the binding ratio, from which the IC50 value was calculated. […]

The test system of experiment [2] is platelet rich plasma (PRP), thrombin-induced platelet aggregation. Description: Inhibitory effects on platelet aggregation using platelet rich plasma (thrombin-induced). Type of experiment: cell-based. Conditions: Homo sapiens, 0.1 h, thrombin 0.5-1.5 units/ml, area under aggregation curve over 6 minutes, read-out: Thr IC50. The protocol:
Blood was sampled from a healthy adult who had taken no drugs for one week, and 3.8% citric acid (a ratio of 1:9 with respect to the blood) was added as an anticoagulant. The mixture was then centrifuged at 100 g for 10 minutes at room temperature to yield platelet rich plasma (PRP). The PRP-removed blood was further centrifuged at 1000 g for 10 minutes to yield platelet poor plasma (PPP). The number of platelet was counted using a multi-parameter automatic hemocyte counter (K4500, Sysmex), and the PRP was diluted to approximately 300,000/μl with the PPP. The platelet aggregation activity was determined in the following manner using an Aggregometer (MC Medical). GPRP-NH2 (final concentration 1 mM, 25 μl) was added as a fibrin polymerization inhibitor to the PRP (175 μl), after which Ca-free Tyrode solution (control) or the test compound suspension (25 μl) at different concentrations was added, incubation was performed at 37° C. for 3 minutes and then 25 μl of thrombin at the minimum concentration required to produce maximum aggregation (final concentration: optimum concentration among 0.5-1.5 units/ml) was added, for initiation of platelet aggregation. […] After addition of thrombin, the aggregation reaction was examined for 6 minutes and the areas under the aggregation curves were compared to determine the inhibition ratio, from which the IC50 value was calculated.

A word on the IC50: it is the concentration needed to halve the response being measured.

The structures appear in SMILES notation. Structures can show the parent of a compound that is named as a salt.

For the compound `CCCC1CN(CC(=O)c2cc(N(C)S(C)(=O)=O)c(O)c(C(C)(C)C)c2)C(=N)[C@@H]1c1ccccc1` (stereo in doubt) [Example 3, N-{3-tert-Butyl-2-hydroxy-5-[2-((3S,4S)-2-imino-3-phenyl-4-propyl-pyrrolidin-1-yl)-acetyl]-phenyl}-N-methyl-methanesulfonamide hydrobromide], the values for the concentration for half-maximal inhibition (IC50) (in experiment [1]; on PAR1 thrombin receptor; in experiment [2]) were 2.5 µM, 0.66 µM and 2.3 µM, respectively.

These data come from US7476688B2, “Cyclic amidine derivatives” (EISAI R&D Management Co., Ltd., priority 2001, dated 2009).
